≈ marks a conversion by molar mass, not a printed value.
Columns and labels:
Assay type in all cases: cell-based
[1] = tested on: ATCC 27294: Vancomycine Mycobacterium tuberculosis; test: Assay for in vitro antibacterial activity, agar dilution method: ATCC 27294; conditions: for MIC50: Mycobacterium tuberculosis, ATCC27294, read-out: Antibacterial Activity (MIC50) ATCC 27294; for Antibacterial Activity (MIC50) ATCC 27294: agar dilution method, Vancomycine Mycobacterium tuberculosis
[2] = tested on: methicillin resistant Staphylococcus aureus; test: Assay for in vitro antibacterial activity, agar dilution method: MRSA; conditions: for Antibacterial Activity (MIC50) MRSA: agar dilution method, methicillin resistant Staphylococcus aureus
H. Influenzae = test: Assay for in vitro antibacterial activity, agar dilution method: H. Influenzae
[3] = tested on: vancomycin resistant Enterococci; test: Assay for in vitro antibacterial activity, agar dilution method: VRE; conditions: for Antibacterial Activity (MIC50) VRE: agar dilution method, vancomycin resistant Enterococci

| SMILES | MIC50 [1] | MIC50 ([2]; Staphylococcus aureus, MRSA, read-out: Antibacterial Activity (MIC50) MRSA) | MIC50 (H. Influenzae; Haemophilus influenzae) | MIC50 ([3]; Enterococcus, VRE, read-out: Antibacterial Activity (MIC50) VRE) | Antibacterial Activity (MIC50) MRSA [2] | Antibacterial Activity (MIC50) ATCC 27294 [1] | Antibacterial Activity (MIC50) Influenzae (H. Influenzae) | Antibacterial Activity (MIC50) VRE [3] |
| --- | --- | --- | --- | --- | --- | --- | --- | --- |
| N[C@@H]1CON=C1O [Cycloserine, reference compound] | 6.25 µg/mL (≈ 61.2 µM) | – | – | – | – | – | – | – |
| CC(=O)NC[C@H]1CN(c2ccc(N3CCOCC3)c(F)c2)C(=O)O1 [Example U-100766, reference compound] | 1.56 µg/mL (≈ 4.62 µM) | 3.13 µg/mL (≈ 9.28 µM) | 25 µg/mL (≈ 74.1 µM) | 1.56 µg/mL (≈ 4.62 µM) | – | – | – | – |
| CC(=O)NC[C@H]1CN(c2ccc(-c3ccc(-n4cncn4)nc3)c(F)c2)C(=O)O1 [Exmp. 129, (S)-[N-3-(4-(2-(1,2,4-triazol-1-yl)pyridin-5-yl)-3-fluorophenyl)-2-oxo-5-oxazolidinyl]methyl acetamide] | – | – | – | – | 0.39 µg/mL | 0.1 µg/mL | 6.25 µg/mL | 0.2 µg/mL |
| CC(=O)NC[C@H]1CN(c2ccc(-c3ccc(-n4cnnn4)nc3)c(F)c2)C(=O)O1 [Exmp. 136, (S)-(N-3-(4-(2-(1-tetrazolyl)-pyridin-5-yl)-3-fluorophenyl)-2-oxo-5-oxazolidinyl)methyl acetamide] | – | – | – | – | 0.78 µg/mL | 0.1 µg/mL | 12.5 µg/mL | 0.2 µg/mL |
| CC(=O)NC[C@H]1CN(c2ccc(-c3ccc(-c4nnc(C)o4)nc3)c(F)c2)C(=O)O1 [Exmp. 137, (S)-[N-3-(4-(2-(5-methyl-(1,3,4)-oxadiazol-2-yl)-pyridin-5-yl)-3-fluorophenyl)-2-oxo-5-oxazolidinyl]methyl acetamide] | – | – | – | – | 0.39 µg/mL | 0.1 µg/mL | 3.13 µg/mL | 0.2 µg/mL |
| CC(=O)NC[C@H]1CN(c2ccc(-c3ccc(-c4noc(C)n4)nc3)c(F)c2)C(=O)O1 [Exmp. 138, (S)-[N-3-(4-(2-(5-methyl-(1,2,4)-oxadiazol-3-yl)pyridin-5-yl)-3-fluorophenyl)-2-oxo-5-oxazolidinyl]methyl acetamide] | – | – | – | – | 0.78 µg/mL | 0.1 µg/mL | 3.13 µg/mL | 0.39 µg/mL |
| CC(=O)NC[C@H]1CN(c2ccc(-c3ccc(-c4nnnn4C)nc3)c(F)c2)C(=O)O1 [Exmp. 139, (S)-[N-3-(4-(2-(1-methyl-5-tetrazolyl)-pyridin-5-yl)-3-fluorophenyl)-2-oxo-5-oxazolidinyl]methyl acetamide] | – | – | – | – | 0.78 µg/mL | 0.1 µg/mL | 3.13 µg/mL | 0.2 µg/mL |
| CC(=O)NC[C@H]1CN(c2ccc(-c3ccc(-c4nnn(C)n4)nc3)c(F)c2)C(=O)O1 [Exmp. 140, (S)-[N-3-(4-(2-(2-methyl-5-tetrazolyl)-pyridin-5-yl)-3-fluorophenyl)-2-oxo-5-oxazolidinyl]methyl acetamide] | – | – | – | – | 0.78 µg/mL | 0.1 µg/mL | 12.5 µg/mL | 0.2 µg/mL |
| CC(=O)NC[C@H]1CN(c2ccc(-c3ccc(N4CCOC4=O)nc3)c(F)c2)C(=O)O1 [Exmp. 143, (S)-[N-3-(4-(2-(2-oxo-(1,3)-oxazolidin-3-yl)-pyridin-5-yl)-3-fluorophenyl)-2-oxo-5-oxazolidinyl]methyl acetamide] | – | – | – | – | 0.78 µg/mL | 0.1 µg/mL | 1.56 µg/mL | 0.2 µg/mL |
| CC(=O)NC[C@H]1CN(c2ccc(-c3ccc(-c4nnn[nH]4)nc3)c(F)c2)C(=O)O1 [Exmp. 152, (S)-[N-3-(4-(2-(5-Tetrazolyl)-5-pyridinyl)-3-fluorophenyl)-2-oxo-5-oxazolidinyl]methyl Acetamide] | – | – | – | – | >25 µg/mL | >25 µg/mL | >25 µg/mL | >25 µg/mL |
| CO[C@H]1/C=C/O[C@@]2(C)Oc3c(C)c(O)c4c(O)c(c(/C=N/N5CCN(C)CC5)c(O)c4c3C2=O)NC(=O)/C(C)=C\C=C\[C@H](C)[C@H](O)[C@@H](C)[C@@H](O)[C@@H](C)[C@H](OC(C)=O)[C@@H]1C [Rifampin, reference compound] | 0.2 µg/mL (≈ 0.243 µM) | – | – | – | – | – | – | – |

Reference: patent US6689779B2, “Oxazolidinone derivatives and a process for the preparation thereof” (priority 2000, dated 2004)
